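In this assay, cells in 96-well plates receive the compound at five concentrations for 48 hours. Endpoints are linearly interpolated between the surrounding concentrations. GI50: concentration for 50% inhibition of growth.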 Activity calls are given as the source filed them. Rule as the data show it: active = GI50 up to about 1.1 µM and inactive = higher.
Columns and labels:
Assay in all cases: NCI-60 cell line screen, 48 h
786-0 = tested on: 786-0
DU-145 = tested on: DU-145
HCT-116 = tested on: HCT-116
HT-29 = tested on: HT-29
Hs-578T = tested on: Hs-578T
MDA-N = tested on: MDA-N
NCI-H226 = tested on: NCI-H226
NCI-H522 = tested on: NCI-H522
OVCAR-3 = tested on: OVCAR-3
OVCAR-5 = tested on: OVCAR-5
RXF 393 = tested on: RXF 393
SF-295 = tested on: SF-295
SF-539 = tested on: SF-539
SK-MEL-28 = tested on: SK-MEL-28
SR = tested on: SR
TK-10 = tested on: TK-10
CCRF-CEM = tested on: CCRF-CEM
COLO 205 = tested on: COLO 205
HOP-92 = tested on: HOP-92

Measured: GI50

CC(C)(C)OC(=O)NNC(=O)C1Cc2ccccc2OC1=O (stereo not drawn)
inactive: 786-0 > 100 µM | DU-145 > 100 µM | HCT-116 > 100 µM | HT-29 > 100 µM | Hs-578T > 100 µM | MDA-N > 100 µM | NCI-H226 > 100 µM | NCI-H522 > 100 µM | OVCAR-3 > 100 µM | OVCAR-5 > 100 µM | RXF 393 > 100 µM | SF-295 > 100 µM | SF-539 > 100 µM | SK-MEL-28 > 100 µM | SR > 100 µM | TK-10 > 100 µM

O=C1CSC(c2ccc([N+](=O)[O-])cc2)N1c1ccc(-c2ccc(-n3c(-c4ccccc4)nc4ccccc4c3=O)cc2)cc1 (stereo not drawn)
inactive: 786-0 70.8 µM | CCRF-CEM 25.7 µM | COLO 205 43.5 µM | DU-145 > 100 µM | HCT-116 60.5 µM | HOP-92 41.7 µM | HT-29 49.7 µM | Hs-578T > 100 µM | MDA-N 75 µM | NCI-H226 56.1 µM | NCI-H522 > 100 µM | OVCAR-3 53.1 µM | OVCAR-5 > 100 µM | SF-295 85.3 µM | SF-539 > 100 µM | SK-MEL-28 81.3 µM | SR 18.7 µM | TK-10 66.2 µM

O=C(c1cc2ccccc2[nH]1)N1C2CCC1CN(CCOC(c1ccc(F)cc1)c1ccc(F)cc1)CC2 (stereo not drawn)
inactive: 786-0 > 100 µM | CCRF-CEM 6.01 µM | COLO 205 5 µM | DU-145 > 100 µM | HCT-116 5.09 µM | HOP-92 > 100 µM | HT-29 23.8 µM | Hs-578T > 100 µM | MDA-N > 100 µM | NCI-H226 6.9 µM | NCI-H522 18.1 µM | OVCAR-3 9.02 µM | OVCAR-5 > 100 µM | RXF 393 3.97 µM | SF-295 9.89 µM | SF-539 19.1 µM | SK-MEL-28 > 100 µM | TK-10 > 100 µM

COc1ccc(-n2c(C)nc3ccc(NC4OCC(OC(C)=O)C(OC(C)=O)C4OC(C)=O)cc3c2=O)cc1 (stereo not drawn)
inactive: 786-0 > 100 µM | COLO 205 > 100 µM | DU-145 > 100 µM | HCT-116 > 100 µM | HT-29 > 100 µM | Hs-578T > 100 µM | MDA-N > 100 µM | NCI-H226 > 100 µM | NCI-H522 > 100 µM | OVCAR-3 > 100 µM | OVCAR-5 > 100 µM | RXF 393 > 100 µM | SF-295 > 100 µM | SK-MEL-28 > 100 µM | SR > 100 µM | TK-10 > 100 µM

COC(=O)NN(C(=O)OC)c1c(-c2ccccc2)nc(SC)n1N
inactive: 786-0 > 100 µM | CCRF-CEM > 100 µM | COLO 205 > 100 µM | DU-145 > 100 µM | HCT-116 > 100 µM | Hs-578T > 100 µM | MDA-N > 100 µM | NCI-H226 > 100 µM | NCI-H522 > 100 µM | OVCAR-3 > 100 µM | OVCAR-5 > 100 µM | RXF 393 > 100 µM | SF-295 > 100 µM | SF-539 > 100 µM | SK-MEL-28 > 100 µM | SR > 100 µM | TK-10 > 100 µM

Cn1c2ccccc2c2[nH]c3ccccc3c(=O)c21
inactive: 786-0 > 100 µM | CCRF-CEM > 100 µM | COLO 205 > 100 µM | DU-145 > 100 µM | HCT-116 53.3 µM | HOP-92 65.5 µM | HT-29 > 100 µM | Hs-578T > 100 µM | MDA-N > 100 µM | NCI-H226 > 100 µM | OVCAR-3 > 100 µM | OVCAR-5 > 100 µM | RXF 393 > 100 µM | SF-295 > 100 µM | SF-539 > 100 µM | SK-MEL-28 > 100 µM | SR > 100 µM | TK-10 > 100 µM

O=C(O)CCCCC1CCSS1 (stereo not drawn) [LIPOIC ACID, ALPHA]
inactive: 786-0 > 100 µM | CCRF-CEM > 100 µM | COLO 205 > 100 µM | DU-145 > 100 µM | HCT-116 > 100 µM | HOP-92 30 µM | HT-29 > 100 µM | Hs-578T > 100 µM | MDA-N > 100 µM | NCI-H226 > 100 µM | NCI-H522 > 100 µM | OVCAR-3 > 100 µM | OVCAR-5 > 100 µM | SF-295 > 100 µM | SF-539 > 100 µM | SK-MEL-28 > 100 µM | SR > 100 µM | TK-10 > 100 µM

COc1cc(OC)c2c(=O)c(OC)c(-c3ccc4c(c3)OCO4)oc2c1OC
inactive: 786-0 > 100 µM | CCRF-CEM 28.5 µM | COLO 205 53.6 µM | DU-145 81.1 µM | HCT-116 83.9 µM | HOP-92 4.91 µM | HT-29 > 100 µM | Hs-578T > 100 µM | MDA-N > 100 µM | NCI-H226 > 100 µM | NCI-H522 43.1 µM | OVCAR-3 > 100 µM | OVCAR-5 > 100 µM | RXF 393 > 100 µM | SF-295 91.4 µM | SF-539 > 100 µM | SK-MEL-28 > 100 µM | TK-10 > 100 µM

CC(C)N/C(=N\C#N)NS(=O)(=O)c1cnccc1NC1CCCCCCC1
inactive: 786-0 > 100 µM | CCRF-CEM > 100 µM | COLO 205 > 100 µM | DU-145 > 100 µM | HCT-116 > 100 µM | HT-29 > 100 µM | Hs-578T > 100 µM | MDA-N > 100 µM | NCI-H226 > 100 µM | NCI-H522 > 100 µM | OVCAR-3 > 100 µM | OVCAR-5 > 100 µM | RXF 393 > 100 µM | SF-295 > 100 µM | SK-MEL-28 > 100 µM | SR > 100 µM | TK-10 > 100 µM

CC[C@H](NC1=C(Cl)C(=O)c2c(O)ccc(O)c2C1=O)C(=O)OC
inactive: 786-0 4.69 µM | CCRF-CEM 3.5 µM | COLO 205 3.58 µM | DU-145 > 10 µM | HCT-116 2.34 µM | HOP-92 > 10 µM | HT-29 2.78 µM | Hs-578T > 10 µM | MDA-N 6.55 µM | NCI-H226 > 10 µM | NCI-H522 3.53 µM | OVCAR-3 4.19 µM | OVCAR-5 > 10 µM | SF-295 > 10 µM | SF-539 3.44 µM | SR 1.64 µM | TK-10 > 10 µM

N#CC(C#N)/N=N/c1ccc(-c2nc3ccccc3o2)cc1
inactive: 786-0 14.4 µM | COLO 205 11.7 µM | DU-145 13.3 µM | HCT-116 5.55 µM | HOP-92 6.81 µM | HT-29 12.8 µM | Hs-578T 42 µM | MDA-N 17.2 µM | NCI-H522 5.02 µM | OVCAR-3 4.19 µM | OVCAR-5 17.4 µM | SF-539 12.2 µM | SK-MEL-28 6.12 µM | SR 16.2 µM | TK-10 11 µM
